In PMC12518996 (Frontiers in Pharmacology, 2025):

Assays:
Type in all cases: in vitro ADME
CYP3A4 = CYP3A4 (Homo sapiens, UniProt P08684); assay: Metabolite formation by recombinant human CYP3A4; conditions: trazodone 4 μM; NADPH; 37 °C, 40 min
Procedure: (§1) Each reaction was terminated with acetonitrile, centrifuged, and the supernatant was analyzed by identical UHPLC-Orbitrap setup outlined in §2.2, allowing direct comparison of metabolite spectra across all in-vitro systems.

CYP2D18 = assay: Metabolite formation by recombinant rat CYP2D18; conditions: trazodone 4 μM; NADPH; 37 °C, 40 min
Procedure: (§2) To confirm the role of individual CYP isoforms in metabolizing trazodone, recombinant human and rat CYP enzymes were employed in separate incubations. […] Each reaction was terminated with acetonitrile, centrifuged, and the supernatant was analyzed by identical UHPLC-Orbitrap setup outlined in §2.2, allowing direct comparison of metabolite spectra across all in-vitro systems. […] This procedure helped confirm the contributions of individual isoforms to specific biotransformation reactions.

CYP3A2 = molecular target: T1, CYP3A2 (Rattus norvegicus, UniProt P05183); assay: Metabolite formation by recombinant rat CYP3A2; conditions: trazodone 4 μM; NADPH; 37 °C, 40 min
T1 sequence (P05183 1-504): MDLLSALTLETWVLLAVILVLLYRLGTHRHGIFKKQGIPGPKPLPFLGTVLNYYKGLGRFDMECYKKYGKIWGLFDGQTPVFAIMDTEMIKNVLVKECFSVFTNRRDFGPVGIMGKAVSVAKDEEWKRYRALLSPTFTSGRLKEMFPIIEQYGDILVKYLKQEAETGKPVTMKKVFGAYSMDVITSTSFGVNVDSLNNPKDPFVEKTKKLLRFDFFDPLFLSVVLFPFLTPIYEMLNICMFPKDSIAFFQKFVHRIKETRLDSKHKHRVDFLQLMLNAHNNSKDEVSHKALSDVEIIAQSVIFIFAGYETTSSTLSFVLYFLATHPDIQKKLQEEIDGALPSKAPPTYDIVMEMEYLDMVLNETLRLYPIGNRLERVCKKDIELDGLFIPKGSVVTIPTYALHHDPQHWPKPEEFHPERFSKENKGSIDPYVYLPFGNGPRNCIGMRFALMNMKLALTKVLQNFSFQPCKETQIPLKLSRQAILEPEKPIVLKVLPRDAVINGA
Procedure: as §1

CYP2B6 = molecular target: T2, CYP2B6 (Homo sapiens, UniProt P20813); assay: Metabolite formation by recombinant human CYP2B6; conditions: trazodone 4 μM; NADPH; 37 °C, 40 min
T2 sequence (P20813 1-491): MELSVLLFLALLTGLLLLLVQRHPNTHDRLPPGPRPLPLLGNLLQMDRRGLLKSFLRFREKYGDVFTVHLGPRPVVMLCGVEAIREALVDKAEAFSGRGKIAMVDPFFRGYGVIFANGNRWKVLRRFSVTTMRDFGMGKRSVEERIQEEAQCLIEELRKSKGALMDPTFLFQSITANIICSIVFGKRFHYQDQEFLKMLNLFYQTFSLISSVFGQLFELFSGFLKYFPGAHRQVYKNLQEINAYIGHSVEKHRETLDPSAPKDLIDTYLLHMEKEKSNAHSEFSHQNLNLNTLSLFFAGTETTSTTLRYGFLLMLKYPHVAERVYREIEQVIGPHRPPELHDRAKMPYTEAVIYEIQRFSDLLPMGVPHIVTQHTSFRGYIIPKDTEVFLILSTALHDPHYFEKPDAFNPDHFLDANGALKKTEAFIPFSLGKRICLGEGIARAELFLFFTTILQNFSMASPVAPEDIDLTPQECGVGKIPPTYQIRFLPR
Procedure: as §2

MAOB = molecular target: T3, MAOB (Homo sapiens, UniProt P27338); assay: Metabolite formation by recombinant human MAOB; conditions: trazodone 4 μM; 37 °C, 40 min
T3 sequence (P27338 1-520): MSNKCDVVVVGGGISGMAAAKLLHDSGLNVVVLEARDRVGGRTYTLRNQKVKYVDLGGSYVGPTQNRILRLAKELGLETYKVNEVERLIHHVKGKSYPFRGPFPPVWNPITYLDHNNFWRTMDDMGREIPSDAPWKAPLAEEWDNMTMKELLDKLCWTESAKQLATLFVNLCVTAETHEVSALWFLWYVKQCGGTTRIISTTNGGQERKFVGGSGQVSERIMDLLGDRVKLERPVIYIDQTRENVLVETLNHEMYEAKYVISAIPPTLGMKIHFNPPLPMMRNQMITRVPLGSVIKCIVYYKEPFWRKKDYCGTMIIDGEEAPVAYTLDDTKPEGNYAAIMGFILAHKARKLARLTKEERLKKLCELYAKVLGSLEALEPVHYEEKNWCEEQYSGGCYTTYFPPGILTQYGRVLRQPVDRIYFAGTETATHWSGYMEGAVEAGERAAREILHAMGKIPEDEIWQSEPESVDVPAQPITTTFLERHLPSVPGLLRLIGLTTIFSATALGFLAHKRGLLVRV

CYP2D4 = molecular target: T4, CYP2D4 (Rattus norvegicus, UniProt Q64680); assay: Metabolite formation by recombinant rat CYP2D4; conditions: trazodone 4 μM; NADPH; 37 °C, 40 min
T4 sequence (Q64680 1-500): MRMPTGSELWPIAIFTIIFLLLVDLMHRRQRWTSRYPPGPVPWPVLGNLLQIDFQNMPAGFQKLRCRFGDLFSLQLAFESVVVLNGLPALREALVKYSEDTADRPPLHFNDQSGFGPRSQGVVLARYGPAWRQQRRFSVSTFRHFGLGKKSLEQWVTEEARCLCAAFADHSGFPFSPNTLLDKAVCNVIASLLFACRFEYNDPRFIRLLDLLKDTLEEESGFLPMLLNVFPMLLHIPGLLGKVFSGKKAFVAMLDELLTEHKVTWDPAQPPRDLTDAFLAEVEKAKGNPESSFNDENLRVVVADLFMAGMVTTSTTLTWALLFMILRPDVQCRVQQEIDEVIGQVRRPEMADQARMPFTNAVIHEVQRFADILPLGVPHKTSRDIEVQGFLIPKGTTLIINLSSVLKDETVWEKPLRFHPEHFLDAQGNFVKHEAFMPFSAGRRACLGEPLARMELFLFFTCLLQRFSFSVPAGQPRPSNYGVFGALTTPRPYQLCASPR
Procedure: as §2

CYP3A4, sequence (P08684 whole entry): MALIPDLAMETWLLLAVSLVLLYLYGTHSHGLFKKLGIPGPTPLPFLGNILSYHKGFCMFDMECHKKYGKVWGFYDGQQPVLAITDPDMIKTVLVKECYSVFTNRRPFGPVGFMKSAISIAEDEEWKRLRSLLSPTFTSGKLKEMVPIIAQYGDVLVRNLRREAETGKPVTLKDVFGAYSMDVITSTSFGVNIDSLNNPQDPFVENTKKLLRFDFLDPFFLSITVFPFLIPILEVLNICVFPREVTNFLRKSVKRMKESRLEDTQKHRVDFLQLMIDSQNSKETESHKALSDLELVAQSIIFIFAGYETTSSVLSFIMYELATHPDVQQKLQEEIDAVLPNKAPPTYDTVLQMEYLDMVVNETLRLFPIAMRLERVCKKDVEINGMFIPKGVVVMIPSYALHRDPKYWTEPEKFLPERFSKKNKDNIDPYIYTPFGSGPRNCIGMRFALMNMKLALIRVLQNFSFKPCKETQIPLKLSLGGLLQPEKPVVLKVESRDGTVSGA

Compound	Formation of trazodone phase I metabolite by recombinant human CYP3A4 (as LC/MS peak areas) (CYP3A4)	Formation of trazodone phase I metabolite by recombinant rat CYP2D18 (as LC/MS peak areas) (CYP2D18)	Formation of trazodone phase I metabolite by recombinant rat CYP3A2 (as LC/MS peak areas) (CYP3A2)	Formation of trazodone phase I metabolite by recombinant human CYP2B6 (as LC/MS peak areas) (CYP2B6)	Formation of trazodone phase I metabolite by recombinant human MAOB (as LC/MS peak areas) (MAOB)	Formation of trazodone phase I metabolite by recombinant rat CYP2D4 (as LC/MS peak areas) (CYP2D4)
O=c1n(CCCN2CCNCC2)nc2ccccn12 [Metabolite M15]	6716	134	3368	0	0	184
O=c1n(CCCO)nc2ccccn12 [Metabolite M20]	236	240	5761	0	0	538
Clc1cccc(N2CCNCC2)c1 [mCPP, m-chlorophenylpiperazine]	32991	1962	45534	112	20	3166
